Our source for the IC50 values is patent publication US9981916B2 (Genentech, Inc., priority 2013, dated 2018).

This experiment has as its target T1, RORc ligand binding domain (Homo sapiens, UniProt P51449).
T1 construct: host or cells: E. coli
T1 sequence (P51449 269-508 limits assumed): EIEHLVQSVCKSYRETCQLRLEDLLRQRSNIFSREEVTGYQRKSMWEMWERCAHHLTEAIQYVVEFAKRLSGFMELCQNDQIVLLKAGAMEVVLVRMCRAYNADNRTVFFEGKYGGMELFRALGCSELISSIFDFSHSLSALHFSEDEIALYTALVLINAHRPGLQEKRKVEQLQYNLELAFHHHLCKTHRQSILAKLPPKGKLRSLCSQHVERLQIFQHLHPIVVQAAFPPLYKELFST
The experiment in a line: In vitro RORc ligand binding assay (25-[3H]hydroxycholesterol displacement, filter binding). To be noted: 6 nM 25-[3H]hydroxycholesterol, 0.6 ug/mL RORc receptor, 3 h at 25° C. In short, it runs like this:
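Compounds in 5% DMSO, either dose-response or screened at 1 and 10 uM, competed with 6 nM 25-[3H]hydroxycholesterol for 0.6 ug/mL RORc over 3 h at 25° C (HEPES pH 7.4, NaCl, MgCl2, DTT, BSA buffer). Bound tracer was filter-harvested and counted; nonspecific binding came from 1 uM 25-hydroxycholesterol.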
As to `CC1(C)[C@@H]2CC[C@@]1(C(=O)N1CC(F)C1)c1nnc(-c3c(F)cccc3F)cc12` [Example 93, [(5S,8S)-3-(2,6-difluorophenyl)-9,9-dimethyl-6,7-dihydro-5,8-methanocinnolin-8(5H)-yl](3-fluoroazetidin-1-yl)methanone], the IC50 (in general, the point on the concentration scale where inhibition reaches its midpoint) is 0.127 µM. For the compound `CC(=O)Nc1ccc(-c2cc3c(nn2)[C@@]2(C)CC[C@@H]3C2(C)C)cn1` [Example 95, N-{5-[(5R,8S)-8,9,9-trimethyl-5,6,7,8-tetrahydro-5,8-methanocinnolin-3-yl]pyridin-2-yl}acetamide], the IC50 turned out to be 3.32 µM. The compound `Cn1cc(-c2cc3c(nn2)[C@@]2(C)CC[C@@H]3C2(C)C)cn1` [Example 96, (5R,8S)-8,9,9-trimethyl-3-(1-methyl-1H-pyrazol-4-yl)-5,6,7,8-tetrahydro-5,8-methanocinnoline] registered an IC50 of 5.48 µM. In the case of `CC1(C)[C@H]2CC[C@]1(C)c1nnc(Oc3c(F)cccc3Cl)cc12` [Example 97, (5R,8S)-3-(2-chloro-6-fluorophenoxy)-8,9,9-trimethyl-5,6,7,8-tetrahydro-5,8-methanocinnoline], the IC50 came to 0.087 µM.

`CC1(C)[C@H]2CC[C@]1(C)c1nnc(Oc3ccccc3F)cc12` [Example 98, (5R,8S)-3-(2-fluorophenoxy)-8,9,9-trimethyl-5,6,7,8-tetrahydro-5,8-methanocinnoline] showed a half-inhibitory concentration (IC50) of 0.6 µM. `CC1(C)[C@H]2CC[C@]1(C)c1nnc(Oc3c(F)cccc3F)cc12` [Example 99, (5R,8S)-3-(2,6-difluorophenoxy)-8,9,9-trimethyl-5,6,7,8-tetrahydro-5,8-methanocinnoline] yielded an IC50 of 0.28 µM. In the case of `CC1CN(C(=O)[C@]23CC[C@H](c4cc(-c5c(F)cccc5F)nnc42)C3(C)C)C1` [Example 100, [(5S,8S)-3-(2,6-difluorophenyl)-9,9-dimethyl-6,7-dihydro-5,8-methanocinnolin-8(5H)-yl](3-methylazetidin-1-yl)methanone] it was 0.07 µM; in that of `CC1(C)[C@H]2CC[C@]1(c1nnco1)c1nnc(-c3c(F)cccc3F)cc12` [Example 101], 0.192 µM. Compound `CC1(C)[C@H]2CC[C@]1(c1ncco1)c1nnc(-c3c(F)cccc3F)cc12` [Example 102, (5R,8R)-3-(2,6-difluorophenyl)-9,9-dimethyl-8-(1,3-oxazol-2-yl)-5,6,7,8-tetrahydro-5,8-methanocinnoline] had an IC50 of 0.017 µM. In the case of `Cc1nnc([C@]23CC[C@H](c4cc(-c5c(F)cccc5F)nnc42)C3(C)C)o1` [Example 103, (5S,8S)-3-(2,6-difluorophenyl)-9,9-dimethyl-8-(5-methyl-1,3,4-oxadiazol-2-yl)-5,6,7,8-tetrahydro-5,8-methanocinnoline], the concentration for half-maximal inhibition (IC50) is 0.205 µM. On to `CC1(C)[C@H]2CC[C@]1(c1cnco1)c1nnc(-c3c(F)cccc3F)cc12` [Example 104, (5R,8R)-3-(2,6-difluorophenyl)-9,9-dimethyl-8-(1,3-oxazol-5-yl)-5,6,7,8-tetrahydro-5,8-methanocinnoline], for which the half-maximal inhibitory concentration (IC50) came out at 0.222 µM. Under `COc1nnc([C@@]23CC[C@@H](c4cc(-c5c(F)cccc5F)nnc42)C3(C)C)o1` [Example 105, (5R,8R)-3-(2,6-difluorophenyl)-8-(5-methoxy-1,3,4-oxadiazol-2-yl)-9,9-dimethyl-5,6,7,8-tetrahydro-5,8-methanocinnoline] stands 0.261 µM; under `CC1(C)[C@H]2CC[C@]1(n1cnnc1)c1nnc(-c3c(F)cccc3F)cc12` [Example 107, (5R,8R)-3-(2,6-difluorophenyl)-9,9-dimethyl-8-(4H-1,2,4-triazol-4-yl)-5,6,7,8-tetrahydro-5,8-methanocinnoline], 1.5 µM.

The compound `Cc1coc([C@@]23CC[C@@H](c4cc(-c5c(F)cccc5F)nnc42)C3(C)C)n1` [Example 108, (5R,8R)-3-(2,6-difluorophenyl)-9,9-dimethyl-8-(4-methyl-1,3-oxazol-2-yl)-5,6,7,8-tetrahydro-5,8-methanocinnoline] registered an IC50 of 0.096 µM.

On to `CC1(C)[C@H]2CC[C@]1(N1CCCC1=O)c1nnc(-c3c(F)cccc3F)cc12` [Example 109, 1-[(5R,8R)-3-(2,6-difluorophenyl)-9,9-dimethyl-6,7-dihydro-5,8-methanocinnolin-8(5H)-yl]pyrrolidin-2-one], for which the 50% inhibitory concentration (IC50) was found to be 0.201 µM.

In turn, `CC1(C)[C@@H]2CC[C@@]1(c1nnco1)c1nnc(-c3c(F)cccc3F)cc12` [Example 110, (5S,8S)-3-(2,6-difluorophenyl)-9,9-dimethyl-8-(1,3,4-oxadiazol-2-yl)-5,6,7,8-tetrahydro-5,8-methanocinnoline] came in with an IC50 of 0.186 µM. The compound `CC1(C)[C@@H]2CC[C@@]1(c1nnc(CO)o1)c1nnc(-c3c(F)cccc3F)cc12` [Example 111, {5-[(5S,8S)-3-(2,6-difluorophenyl)-9,9-dimethyl-6,7-dihydro-5,8-methanocinnolin-8(5H)-yl]-1,3,4-oxadiazol-2-yl}methanol] showed an IC50 of 0.195 µM. Compound `Cc1cnc([C@@]23CC[C@@H](c4cc(-c5c(F)cccc5F)nnc42)C3(C)C)o1` [Example 112, (5R,8R)-3-(2,6-difluorophenyl)-9,9-dimethyl-8-(5-methyl-1,3-oxazol-2-yl)-5,6,7,8-tetrahydro-5,8-methanocinnoline] registered a half-maximal inhibitory concentration (IC50) of 0.027 µM. In the case of `CC1(C)[C@H]2CC[C@]1(c1ccn[nH]1)c1nnc(-c3c(F)cccc3F)cc12` [Example 113, (5R,8S)-3-(2,6-difluorophenyl)-9,9-dimethyl-8-(1H-pyrazol-5-yl)-5,6,7,8-tetrahydro-5,8-methanocinnoline] it was 0.043 µM; in that of `CC1(C)[C@H]2CC[C@]1(c1cocn1)c1nnc(-c3c(F)cccc3F)cc12` [Example 114, (5R,8S)-3-(2,6-difluorophenyl)-9,9-dimethyl-8-(1,3-oxazol-4-yl)-5,6,7,8-tetrahydro-5,8-methanocinnoline], 0.039 µM. With `Cc1ncc([C@@]23CC[C@@H](c4cc(-c5c(F)cccc5F)nnc42)C3(C)C)o1` [Example 117, (5R,8R)-3-(2,6-difluorophenyl)-9,9-dimethyl-8-(2-methyl-1,3-oxazol-5-yl)-5,6,7,8-tetrahydro-5,8-methanocinnoline], the half-maximal inhibitory concentration (IC50) was found to be 0.019 µM.

On to `Cc1ncoc1[C@@]12CC[C@@H](c3cc(-c4c(F)cccc4F)nnc31)C2(C)C` [Example 118, (5R,8R)-3-(2,6-difluorophenyl)-9,9-dimethyl-8-(4-methyl-1,3-oxazol-5-yl)-5,6,7,8-tetrahydro-5,8-methanocinnoline], for which the half-inhibitory concentration (IC50) is 0.134 µM. Take `CC1(C)[C@H]2CC[C@]1(COc1ccccn1)c1nnc(-c3c(F)cccc3F)cc12` [Example 120, (5R,8R)-3-(2,6-difluorophenyl)-9,9-dimethyl-8-[(pyridin-2-yloxy)methyl]-5,6,7,8-tetrahydro-5,8-methanocinnoline]: the concentration for half-maximal inhibition (IC50) was determined as 0.126 µM. In turn, `CC1(C)[C@H]2CC[C@]1(Cn1ccccc1=O)c1nnc(-c3c(F)cccc3F)cc12` [Example 121, 1-{[(5R,8S)-3-(2,6-difluorophenyl)-9,9-dimethyl-6,7-dihydro-5,8-methanocinnolin-8(5H)-yl]methyl}pyridin-2(1H)-one] had a 50% inhibitory concentration (IC50) of 0.199 µM.

In the case of `CCc1nnc([C@@]23CC[C@@H](c4cc(-c5c(F)cccc5F)nnc42)C3(C)C)o1` [Example 122, (5R,8R)-3-(2,6-difluorophenyl)-9,9-dimethyl-8-(5-ethyl-1,3,4-oxadiazol-2-yl)-5,6,7,8-tetrahydro-5,8-methanocinnoline], the half-inhibitory concentration (IC50) stood at 0.017 µM. In the case of `CC1(C)[C@H]2CC[C@]1(c1nnc(C3CC3)o1)c1nnc(-c3c(F)cccc3F)cc12` [Example 123, (5R,8R)-3-(2,6-difluorophenyl)-9,9-dimethyl-8-(5-cyclopropyl-1,3,4-oxadiazol-2-yl)-5,6,7,8-tetrahydro-5,8-methanocinnoline] it was 0.109 µM. Under `CCc1nnc([C@@]23CC[C@@H](c4cc(-c5c(F)cccc5F)nnc42)C3(C)C)s1` [Example 124, (5R,8R)-3-(2,6-difluorophenyl)-9,9-dimethyl-8-(5-ethyl-1,3,4-thiadiazol-2-yl)-5,6,7,8-tetrahydro-5,8-methanocinnoline] stands 0.117 µM; under `CC(C)c1nnc([C@@]23CC[C@@H](c4cc(-c5c(F)cccc5F)nnc42)C3(C)C)o1` [Example 125, (5R,8R)-3-(2,6-difluorophenyl)-9,9-dimethyl-8-(5-isopropyl-1,3,4-oxadiazol-2-yl)-5,6,7,8-tetrahydro-5,8-methanocinnoline], 0.811 µM.

As to `CC1(C)[C@H]2C=C[C@]1(C)c1nnc(-c3c(F)cccc3F)cc12` [Example 126, (5R,8S)-3-(2,6-difluorophenyl)-8,9,9-trimethyl-5,8-dihydro-5,8-methanocinnoline], the IC50 was determined as 0.34 µM.

For the compound `CC1(C)[C@H]2C(=O)C[C@]1(C)c1nnc(-c3ccccc3F)cc12` [Example 127, (5R,8S)-3-(2-fluorophenyl)-8,9,9-trimethyl-7,8-dihydro-5,8-methanocinnolin-6(5H)-one], the half-maximal inhibitory concentration (IC50) amounted to 1.7 µM.

As for `CC1(C)[C@@H]2CC[C@@]1(C(=O)Nc1ccc(C#N)cn1)c1nnc(-c3ccccc3F)cc12` [Example 128, (5S,8S)-N-(5-cyanopyridin-2-yl)-3-(2-fluorophenyl)-9,9-dimethyl-5,6,7,8-tetrahydro-5,8-methanocinnoline-8-carboxamide], the 50% inhibitory concentration (IC50) was determined as 0.848 µM.
